Laboratory results published in PubChem BioAssay (NCI).
Values joined by “and” are separate entries in the source; they are usually repeats but may differ in a detail not shown here. Equal entries are not always repeated.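 Where inhibition never reached the appropriate level, the endpoint shown equals the highest concentration tested. Otherwise, values were interpolated linearly from a five-concentration, 48-hour dose response in 96-well plates. At the GI50, growth is halved. TGI denotes the concentration required for complete inhibition of growth.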 Where a SMILES comes first, the peptide text is derived from it. [ ]: non-standard residue; d: D form. 2Nal = N[CH](Cc1ccc2ccccc2c1)C(=O)O

Experiments:
Assay in all cases: NCI anticancer screen, dose series, 48 h
[1] = test system: ACHN renal
[2] = test system: CAKI-1 renal
[3] = test system: COLO 205 colon
[4] = test system: HT29 colon
[5] = test system: LOX IMVI melanoma
[6] = test system: SF-295 CNS
[7] = test system: SK-MEL-28 melanoma
[8] = test system: SK-MEL-5 melanoma
[9] = test system: SK-OV-3 ovarian
[10] = test system: SW-620 colon

Structure (SMILES)	GI50 [1] [µM]	TGI [1]	TGI [2]	GI50 [3] [µM]	TGI [3]	GI50 [4] [µM]	TGI [4] [µM]	TGI [5] [µM]	TGI [6] [µM]	GI50 [7] [µM]	TGI [7] [µM]	TGI [8] [µM]	TGI [9] [µM]	TGI [10] [µM]	GI50 [2] [µM]	GI50 [5] [µM]	GI50 [6] [µM]	GI50 [8] [µM]	GI50 [9] [µM]	GI50 [10] [µM]
CC(NC(=O)C(N)Cc1ccccc1)C(=O)NC(Cc1ccc(O)cc1)C(=O)NC(Cc1c[nH]c2ccccc12)C(=O)NC(CCCCN)C(=O)NC(C(=O)NC(C)C(=O)NC(Cc1ccc2ccccc2c1)C(N)=O)C(C)C (centres undefined) (H-FAYWKVA[2Nal]-NH2; configuration not given here)	22.7	> 12.5 µM and 52.1 µM	> 12.5 µM and 39.1 µM	27.1	> 12.5 µM and 61.2 µM	37.1	> 100	> 12.5	> 12.5	53.4	> 100	> 12.5	> 12.5	> 12.5						
COc1ccc2[nH]cc(/C=C3\C(=O)Nc4ccccc43)c2c1	5.85	37.5 µM	26.4 µM	3.86	23.2 µM	3.6	14.3	15.9	30	10.5	42	15.2	21.5	12.8	4.12	4.62	10.8	3.43	4.75	2.92
CN(C)CCCC1(c2ccc(F)cc2)OCc2cc(-c3ccc4cc[nH]c4c3)ccc21 (centres undefined)	2.12	4.82 µM	3.11 µM	2.11	4.68 µM	2.33	5.93	3.27	3.31	1.8	3.36	3.25	12.9	3.64	1.63	1.78	1.79	1.81	3.38	1.83
C[C@]12CC[C@@H]3c4ccc(O)cc4CC[C@H]3[C@@H]1CC[C@@H]2NS(=O)(=O)c1cccc(Br)c1	2.91	8.61 µM	11 µM	1.89	3.38 µM	3.76	12.7	11.6	11.7	4.21	15.9	3.31	18.6	18	2.99	3.13	3.19	1.77	6.8	4.07
O=C(c1cccs1)c1c(C(F)(F)F)n([O-])c2cc(F)c(F)cc2[n+]1=O	0.419	1.4 µM	4 µM	3.15	5.9 µM	9.5	50	1.78	7.3	1.91	3.7	4.44	5.85	4.09	1.25	0.747	3.71	1.9	2.69	2.45
O=C1c2cccc3c(N4CCN(c5ccc6c7c(cccc57)C(=O)N(CCN5CCNCC5)C6=O)CC4)ccc(c23)C(=O)N1CCN1CCNCC1	7.23	22.5 µM	33 µM	8.87	> 100 µM	3.91	> 100	25.4	35.7	17.1	34.4	53.4	82.9	77.7	14.7	6.57	15.5	16.1	25.7	7.64
COc1ccc2cc(C(=O)/C=C/c3ccc(OC)c(OC)c3)ccc2c1	14.5	31.2 µM	97.6 µM	30.7	73.5 µM	11.9	76.4	> 100	> 100	33.7	98.9	16.6	> 100	27.1	21	3.38	35.6	2.82	32.4	4.21
COc1ccc(-c2c(N)[n+]([O-])c3cc(C)c(C)cc3[n+]2[O-])cc1OC		> 100 µM	> 100 µM		50.3 µM		> 100	> 100	> 100		> 100	74.3	> 100	> 100						
CCCCCCCCCCCCCCCCCC(=O)NCCCNCCCNC(=O)CCCCCCCCCCCCCCCCC		> 100 µM	> 100 µM		> 100 µM		> 100	> 100	> 100		> 100	> 100	> 100	> 100						
N#CC1=C(N)Oc2c(sc3c(F)cccc23)C1c1ccc([N+](=O)[O-])cc1 (centres undefined)	0.407	2.31 µM	1.66 µM	0.279	1.11 µM	0.323	1.47	1.09	1.11	0.34	1.97	1.24	2.37	1.42	0.249	0.133	0.184	0.165	0.308	0.0723
Cc1ccccc1NC(=O)C(=O)Cc1nc2ccccc2s1		> 100 µM	> 100 µM		> 100 µM		> 100	> 100	> 100		> 100	> 100	> 100	> 100						
Nc1cc(C(F)F)c(-c2nc(N3[C@@H]4CC[C@H]3COC4)nc(N3[C@@H]4CC[C@H]3COC4)n2)cn1	0.302	> 100 µM	3.21 µM	0.329	14.5 µM	0.628	> 100	> 48	1.78	0.203	2.92	4.48	0.769	> 100	0.188	0.336	0.19	0.407	0.145	0.803
O=C1OC(c2ccc([N+](=O)[O-])cc2)=N/C1=C\c1ccc(O)cc1		> 100 µM	> 100 µM		> 100 µM		> 100	> 100	> 100		> 100	> 100	> 100	> 100						
COc1cc2cc(C(=O)O)[nH]c2cc1OCc1ccccc1	> 100	> 100 µM	> 100 µM	> 100	> 100 µM	> 100	> 100	> 100	> 100	53.5	> 100	> 100	> 100	> 100	> 100	> 100	> 100	80.8	> 100	> 100
